Test results published in US20090062255A1, “TUMOR-TARGETING EVALUATION METHODOLOGY AND COMPOUNDS RELATED THERETO” (THALLION PHARMACEUTICALS INC., priority 2007, published 2009).

Key:
[1] = target: T1, human MAPK1 (ERK1) (Homo sapiens, UniProt P27361); assay: Upstate Kinase Profiler, MAPK1 (ERK1); format: biochemical
T1 construct: purchased Upstate (Kinase Profiler Service; Dundee, UK)
Experimental: Unlike current Ras signalling pathway inhibitors, ECO-4601 is not a direct kinase inhibitor. This was documented by evaluating the effect of ECO-4601 on human EGFR, c-RAF, MEK1, MAPK1 (ERK1) and MAPK2 (ERK2) kinase-activity (Upstate Kinase Profiler™ Service; Dundee, UK). ECO-4601 was tested at 0.5 μM and 5 μM in a final volume of 25 μL according to standard protocols developed by Upstate Ltd. Briefly, purified recombinant human enzymes were incubated with 25 mM Tris pH 7.5 containing EGTA, a specific substrate and γ-^32P-ATP. The reaction was initiated with MgATP mix and incubated for 40 minutes at RT. The reaction was stopped by the addition of 5 μL of a 3% phosphoric acid solution; aliquots were spotted on filters and counted. Detailed procedures are available on the Millipore Upstate website.

[2] = system: U 373 astrocytoma cell line; assay: MTT cytotoxicity, U 373 cell line; format: cell-based; conditions: U373 MG, 96 h, Human
Experimental: (§1) The cytotoxic activity of Compound 1 was further evaluated using a panel of brain tumor cell lines. This study was performed in collaboration with INSERM (Grenoble, France). Tumor cells (5,000 to 10,000 cells per well depending on their doubling time) were plated in 96-well flat-bottom plates and incubated for 24 hours before treatment. Tumor cells were then incubated for 96 hours with seven different concentrations of Compound 1: […], 0.01, and 0.001 μM. The in vitro cytotoxic activity was determined by a standard MTT assay.

[3] = system: C6 glioblastoma cell line; assay: MTT cytotoxicity, C6 cell line; format: cell-based; conditions: 96 h, Rat
Experimental: as §1

[4] = system: GL26 glioblastoma cell line; assay: MTT cytotoxicity, GL26 cell line; format: cell-based; conditions: 96 h, Human
Experimental: as §1

[5] = system: brain tumor cell lines; assay: MTT cytotoxicity, panel of brain tumor cell lines (summary); format: cell-based; conditions: 96 hours; read-out: IC50 values against brain tumor cell lines, range
Experimental: as §1

[6] = system: human MiaPaCa-2 tumors; assay: Human MiaPaCa-2 tumors in mice, antitumor efficacy; format: in vivo; conditions: 30 mg/kg SC, Q1D×5 for 3 wk, established MiaPaCa-2 tumors
Experimental: Mice bearing established (100 mm^3) human MiaPaCa-2 tumors were dosed with 30 mg/kg (Q1D×5 for 3 wk; SC administration). The positive control group was treated with gemcitabine at 60 mg/kg once a day on Monday and Thursday (TWx4). ECO-4601 as a single agent was statistically different from the vehicle control group (P ˜0.008) following SC daily dosing resulting in a T/C of 56% (FIG. 12).

[7] = target: GABAA, the Central Benzodiazepine Receptor (CBR); assay: CBR radioligand binding assay ([3H]flunitrazepam, rat brain); conditions: 1 nM [3H]-Flunitrazepam
Excerpt: GABAA, the Central Benzodiazepine Receptor (CBenzR or CBR) is involved in anxiolitic activities.
The procedures used were based on known assays: ACAT (from rat; Ref: Largis et al (1989), J. Lipid. Res., vol 30, 681-689), COX-2 (human; Ref: Riendeau et al (1997), Can. J. Physiol. Pharmacol., vol 75, 1088-1095 and Warner et al (1999), Pro. Natl. Acad. Sci. USA, vol 96, 7563-7568), 5-LO (human; Ref: Carter et al (1991), J. Pharmacol. Exp. Ther., vol 256, no 3, 929-937, and Safayhi et al (2000), Planta Medica, vol 66, 110-113), PBR (from rat; Le Fur et al (1983), Life Sci. USA, vol 33, 449-457), CysLT1 (human; Martin et al (2001), Biochem. Pharmacol., vol 62, no 9, 1193-1200) and CBR (from rat; Damm et al (1978), Res. Comm. Chem. Pathol. Pharmacol., vol 22, 597-600 and Speth et al (1979), Life Sci., vol 24, 351-357).
Binding Assays were done at constant concentration of the compound, in 1% DMSO as vehicle, and are specified below each enzyme/receptor type in Table 18. The results are expressed in Table 18 as percentage inhibition. […]
As Compound 1 was isolated from structural prediction through genetic analysis and activity identified through in vitro cytotoxic assays, its molecular target(s) were unknown at the time of discovery. […] The effect of ECO-4601 on CBR (GABAA) and PBR was initially evaluated in a radioligand-binding assay at MDS Pharma Services (Taipei, Tawain). […]

[8] = system: HT-29, SF268, MDA-MB-231 and PC-3 cell lines; assay: In vitro cytotoxic activity against four cell lines (overall statement); format: cell-based; conditions: second test
Excerpt: Procedures used for each series of tests are described below.
Compound 2 has an unexpected increase in cytotoxic activity compared to parent Compound 1. […] Cytotoxic activity (GI50) of Compound 2 for the other three strains was outside the expected range of concentrations used in the first tests.

T1 sequence (P27361 whole entry): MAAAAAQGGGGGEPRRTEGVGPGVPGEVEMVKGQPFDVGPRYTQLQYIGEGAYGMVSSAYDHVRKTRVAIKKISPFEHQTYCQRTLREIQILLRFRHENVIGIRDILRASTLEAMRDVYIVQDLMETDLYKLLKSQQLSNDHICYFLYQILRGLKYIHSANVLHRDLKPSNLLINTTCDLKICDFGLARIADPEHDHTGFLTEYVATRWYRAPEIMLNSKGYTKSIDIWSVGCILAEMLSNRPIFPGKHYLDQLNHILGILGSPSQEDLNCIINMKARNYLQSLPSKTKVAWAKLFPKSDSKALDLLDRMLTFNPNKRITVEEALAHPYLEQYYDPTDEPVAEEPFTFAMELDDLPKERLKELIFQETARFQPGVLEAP

Structure (SMILES)	direct inhibition of ERK1 kinase activity (in words) ([1]; 0.5 μM and 5 μM)	activity at 0.5 µM ([1]; MAPK1 (ERK1), 0.5 μM, % of enzyme activity over positive control, read-out: Kinase Activity (%) ± SD) [%]	activity at 5 µM ([1]; MAPK1 (ERK1), 5 μM, % of enzyme activity over positive control, read-out: Kinase Activity (%) ± SD) [%]	IC50 [2] [µM]	IC50 [3] [µM]	IC50 [4] [µM]	IC50 [5] [µM]	T/C [6] [%]	IC50 [7] [µM]	increase in potency compared to Compound 1 [8] [fold]
CC(C)=CCC/C(C)=C/CC/C(C)=C/CN1C(=O)c2cccc(O)c2Nc2c(O)cc(O)cc21 [Compound 1, 10-farnesyl-4,6,8-trihydroxy-5,10-dihydrodibenzo[b,e][1,4]diazepin-11-one]	does not directly inhibit	97 ± 2	73 ± 3	3.8 ± 1.4	4.3 ± 2.3	8.9 ± 1.1	1.6 to 8.9	56	> 10	
CC(C)=CCC/C(C)=C/CC/C(C)=C/CN1C(=O)c2cccc(O)c2N(C)c2c(O)cc(O)cc21 [Compound 2, 10-farnesyl-4,6,8-trihydroxy-5-methyl-5,10-dihydro-dibenzo[b,e][1,4]diazepin-11-one]										100
